Results from PubChem BioAssay (NCI).
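The compound was tested at five concentrations on cells cultured in 96-well plates, with a 48-hour exposure period. Here, GI50 denotes the concentration required for 50% inhibition of growth. TGI is the concentration that stops growth completely.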

How the values were obtained:
Assay in all cases: NCI anticancer screen, dose series, 48 h
K-562 leukemia = test system: K-562 leukemia
HOP-92 NSCLC = test system: HOP-92 NSCLC
SK-MEL-5 melanoma = test system: SK-MEL-5 melanoma
MOLT-4 leukemia = test system: MOLT-4 leukemia
SNB-19 CNS = test system: SNB-19 CNS
NCI-H226 lung = test system: NCI-H226 lung
OVCAR-4 ovarian = test system: OVCAR-4 ovarian
DU-145 prostate = test system: DU-145 prostate
786-0 renal = test system: 786-0 renal
MDA-MB-435 = test system: MDA-MB-435

CC(=O)O[C@H]1C[C@@H](OC(C)=O)[C@@](C)(O)[C@@H]2[C@@H](OC(C)=O)[C@@]3(O)[C@H](/C=C(/CCl)[C@H]4O[C@H]4[C@@H](OC(C)=O)[C@@]12C)OC(=O)[C@@H]3C
TGI (K-562 leukemia): > 25 µM
TGI (HOP-92 NSCLC): > 25 µM
TGI (SK-MEL-5 melanoma): > 25 µM
TGI (MOLT-4 leukemia): > 25 µM
TGI (SNB-19 CNS): > 25 µM
TGI (NCI-H226 lung): > 25 µM
TGI (OVCAR-4 ovarian): > 25 µM
TGI (DU-145 prostate): > 25 µM
TGI (786-0 renal): > 25 µM
TGI (MDA-MB-435): > 25 µM

CON(C)C(=O)C(C)NC(=O)OC(C)(C)C (stereo not given)
TGI (K-562 leukemia): > 100 µM
TGI (HOP-92 NSCLC): > 100 µM
TGI (SK-MEL-5 melanoma): > 100 µM
TGI (MOLT-4 leukemia): > 100 µM
TGI (SNB-19 CNS): > 100 µM
TGI (NCI-H226 lung): > 100 µM
TGI (DU-145 prostate): > 100 µM
TGI (786-0 renal): > 100 µM
TGI (MDA-MB-435): > 100 µM

CCN(CC)C(=S)SSCCO
GI50 (K-562 leukemia): 4.21 µM
TGI (K-562 leukemia): 18 µM
GI50 (HOP-92 NSCLC): 14.6 µM
TGI (HOP-92 NSCLC): 27.7 µM
GI50 (SK-MEL-5 melanoma): 16.5 µM
TGI (SK-MEL-5 melanoma): 53.1 µM
GI50 (MOLT-4 leukemia): 4.7 µM
TGI (MOLT-4 leukemia): 21.7 µM
GI50 (SNB-19 CNS): 95.4 µM
TGI (SNB-19 CNS): > 100 µM
GI50 (NCI-H226 lung): > 100 µM
TGI (NCI-H226 lung): > 100 µM
GI50 (OVCAR-4 ovarian): 14.7 µM
TGI (OVCAR-4 ovarian): 27.9 µM
GI50 (DU-145 prostate): 37.8 µM
TGI (DU-145 prostate): > 100 µM
GI50 (MDA-MB-435): 15.6 µM
TGI (MDA-MB-435): 31.7 µM

FC(F)(F)c1cnc(N/N=C(/c2ccccc2)c2ccccn2)c(Cl)c1
TGI (K-562 leukemia): > 100 µM
TGI (HOP-92 NSCLC): 23.2 µM
TGI (SK-MEL-5 melanoma): 21.2 µM
TGI (MOLT-4 leukemia): > 100 µM
TGI (SNB-19 CNS): 50.9 µM
TGI (NCI-H226 lung): 50.4 µM
TGI (OVCAR-4 ovarian): 24.8 µM
TGI (DU-145 prostate): 51.3 µM
TGI (786-0 renal): 17.9 µM
TGI (MDA-MB-435): > 100 µM

Nc1c(C(=O)c2ccccc2)nnc2ccccc12
TGI (K-562 leukemia): > 100 µM
TGI (HOP-92 NSCLC): 48.7 µM
TGI (SK-MEL-5 melanoma): 32.7 µM
TGI (MOLT-4 leukemia): > 100 µM
TGI (SNB-19 CNS): > 100 µM
TGI (NCI-H226 lung): > 100 µM
TGI (OVCAR-4 ovarian): > 100 µM
TGI (DU-145 prostate): 69.9 µM
TGI (786-0 renal): > 100 µM
TGI (MDA-MB-435): 60.3 µM

CC(=O)O[C@H]1C[C@H]2[C@@H]([C@H](OC(C)=O)C[C@@H]3CC4(CC[C@@]32C)OOC2(CCCCC2)OO4)[C@@H]2CC[C@H]([C@H](C)CCC(=O)O)[C@@]12C
TGI (K-562 leukemia): 23.7 µM
TGI (HOP-92 NSCLC): 7.1 µM
TGI (SK-MEL-5 melanoma): 22.6 µM
TGI (MOLT-4 leukemia): 51.6 µM
TGI (SNB-19 CNS): 25.4 µM
TGI (NCI-H226 lung): 31.6 µM
TGI (OVCAR-4 ovarian): 9.38 µM
TGI (DU-145 prostate): 31.6 µM
TGI (786-0 renal): 24 µM
TGI (MDA-MB-435): 18.9 µM

Cc1cc(OC(=O)Nc2ccc(Cl)cc2)ccc1C(=S)Nc1ccccc1
TGI (K-562 leukemia): > 100 µM
TGI (HOP-92 NSCLC): > 100 µM
TGI (SK-MEL-5 melanoma): > 100 µM
TGI (MOLT-4 leukemia): > 100 µM
TGI (SNB-19 CNS): > 100 µM
TGI (OVCAR-4 ovarian): > 100 µM
TGI (786-0 renal): > 100 µM
TGI (MDA-MB-435): > 100 µM

CSc1nc(C)cc(=O)n1C1OC(COC(C)=O)C(OC(C)=O)C(OC(C)=O)C1OC(C)=O (stereo not given)
TGI (K-562 leukemia): > 100 µM
TGI (SK-MEL-5 melanoma): > 100 µM
TGI (MOLT-4 leukemia): > 100 µM
TGI (SNB-19 CNS): > 100 µM
TGI (NCI-H226 lung): > 100 µM
TGI (OVCAR-4 ovarian): > 100 µM
TGI (786-0 renal): > 100 µM

Brc1ccc(-c2nc(-c3ccc(Br)cc3)n(-c3ccccc3)n2)cc1
TGI (HOP-92 NSCLC): > 100 µM
TGI (SK-MEL-5 melanoma): > 100 µM
TGI (MOLT-4 leukemia): > 100 µM
TGI (SNB-19 CNS): > 100 µM
TGI (NCI-H226 lung): > 100 µM
TGI (OVCAR-4 ovarian): > 100 µM
TGI (DU-145 prostate): > 100 µM
TGI (786-0 renal): > 100 µM
TGI (MDA-MB-435): > 100 µM

CCN(CC)Cc1ccc(Nc2c3ccccc3nc3ccccc23)cc1
TGI (K-562 leukemia): 7.69 µM
TGI (HOP-92 NSCLC): 11.9 µM
TGI (SK-MEL-5 melanoma): 3.15 µM
TGI (MOLT-4 leukemia): > 100 µM
TGI (SNB-19 CNS): 3.22 µM
TGI (OVCAR-4 ovarian): 7.64 µM
TGI (DU-145 prostate): 7.01 µM
TGI (786-0 renal): 10 µM
TGI (MDA-MB-435): 4.17 µM

Cn1cnnc1SC(F)(F)c1nc2ccccc2o1
TGI (K-562 leukemia): > 100 µM
TGI (HOP-92 NSCLC): > 100 µM
TGI (SK-MEL-5 melanoma): > 100 µM
TGI (MOLT-4 leukemia): > 100 µM
TGI (NCI-H226 lung): > 100 µM
TGI (OVCAR-4 ovarian): > 100 µM
TGI (DU-145 prostate): > 100 µM
TGI (786-0 renal): > 100 µM
TGI (MDA-MB-435): > 100 µM

O=C(/C=C/c1ccc(Cl)cc1)c1ccc(Cl)s1
TGI (K-562 leukemia): > 100 µM
TGI (HOP-92 NSCLC): > 100 µM
TGI (MOLT-4 leukemia): > 100 µM
TGI (SNB-19 CNS): > 100 µM
TGI (OVCAR-4 ovarian): > 100 µM
TGI (DU-145 prostate): > 100 µM
TGI (786-0 renal): 90.9 µM

CCOP(=O)(/C=C/n1cnc2c(=O)n(C(C)=O)c(N)nc21)OCC
TGI (K-562 leukemia): > 100 µM
TGI (SK-MEL-5 melanoma): > 100 µM
TGI (MOLT-4 leukemia): > 100 µM
TGI (SNB-19 CNS): > 100 µM
TGI (NCI-H226 lung): > 100 µM
TGI (OVCAR-4 ovarian): > 100 µM
TGI (DU-145 prostate): > 100 µM
TGI (786-0 renal): > 100 µM
TGI (MDA-MB-435): > 100 µM

COc1cc(S(=O)(=O)Nc2ccc(-c3csc(/N=C\c4cccs4)n3)cc2)ccc1Cl
TGI (K-562 leukemia): > 100 µM
TGI (HOP-92 NSCLC): > 100 µM
TGI (SK-MEL-5 melanoma): > 100 µM
TGI (SNB-19 CNS): > 100 µM
TGI (NCI-H226 lung): > 100 µM
TGI (OVCAR-4 ovarian): > 100 µM
TGI (DU-145 prostate): > 100 µM
TGI (786-0 renal): > 100 µM
TGI (MDA-MB-435): 96.9 µM

COC1(c2ccccc2)NC(=S)NN=C1c1ccccc1 (stereo not given)
TGI (K-562 leukemia): > 100 µM
TGI (HOP-92 NSCLC): > 100 µM
TGI (SK-MEL-5 melanoma): 80.7 µM
TGI (MOLT-4 leukemia): > 100 µM
TGI (SNB-19 CNS): > 100 µM
TGI (DU-145 prostate): > 100 µM
TGI (786-0 renal): > 100 µM
TGI (MDA-MB-435): 39.1 µM

O=C(/C=C/c1cccs1)c1ccc([N+](=O)[O-])cc1
TGI (K-562 leukemia): > 100 µM
TGI (SK-MEL-5 melanoma): > 100 µM
TGI (MOLT-4 leukemia): > 100 µM
TGI (SNB-19 CNS): > 100 µM
TGI (NCI-H226 lung): > 100 µM
TGI (OVCAR-4 ovarian): > 100 µM
TGI (DU-145 prostate): > 100 µM
TGI (786-0 renal): > 100 µM
TGI (MDA-MB-435): > 100 µM

CC(=O)N1c2ccccc2[C@H]2CCc3c([nH]c4ccccc34)[C@H]21
TGI (K-562 leukemia): 30.9 µM
TGI (HOP-92 NSCLC): 33.5 µM
TGI (SK-MEL-5 melanoma): 26.2 µM
TGI (MOLT-4 leukemia): 53.1 µM
TGI (SNB-19 CNS): > 100 µM
TGI (NCI-H226 lung): 36.7 µM
TGI (DU-145 prostate): 61.9 µM
TGI (786-0 renal): 32.2 µM
TGI (MDA-MB-435): 42.5 µM

O=C(c1ccccc1)c1ccc2nc3n(c2c1)C(c1c(Cl)cccc1Cl)SC3 (stereo not given)
TGI (K-562 leukemia): > 100 µM
TGI (HOP-92 NSCLC): > 100 µM
TGI (SK-MEL-5 melanoma): 14.6 µM
TGI (MOLT-4 leukemia): 19.7 µM
TGI (SNB-19 CNS): > 64.1 µM
TGI (NCI-H226 lung): > 100 µM
TGI (OVCAR-4 ovarian): > 80.3 µM
TGI (DU-145 prostate): > 94.5 µM
TGI (786-0 renal): > 100 µM

O=S(=O)(O)c1ccc2c(N=Nc3c(O)ccc4ccccc34)cccc2c1
TGI (K-562 leukemia): 98.1 µM
TGI (HOP-92 NSCLC): > 100 µM
TGI (SK-MEL-5 melanoma): > 100 µM
TGI (SNB-19 CNS): > 100 µM
TGI (NCI-H226 lung): > 100 µM
TGI (OVCAR-4 ovarian): > 100 µM
TGI (DU-145 prostate): > 100 µM
TGI (786-0 renal): > 100 µM
TGI (MDA-MB-435): > 100 µM

N=C(N)c1ccc(N=Nc2c(O)ccc3cc(O)ccc23)cc1
TGI (K-562 leukemia): > 100 µM
TGI (HOP-92 NSCLC): > 100 µM
TGI (SK-MEL-5 melanoma): > 100 µM
TGI (MOLT-4 leukemia): > 100 µM
TGI (SNB-19 CNS): > 100 µM
TGI (NCI-H226 lung): > 100 µM
TGI (OVCAR-4 ovarian): > 100 µM
TGI (786-0 renal): > 100 µM
TGI (MDA-MB-435): > 100 µM

COc1cccc(/C=C2/S/C(=N/Nc3nc(C)c(C(C)=O)s3)NC2=O)c1O
TGI (K-562 leukemia): > 100 µM
TGI (HOP-92 NSCLC): 91.7 µM
TGI (SK-MEL-5 melanoma): 43.5 µM
TGI (SNB-19 CNS): > 100 µM
TGI (NCI-H226 lung): > 100 µM
TGI (OVCAR-4 ovarian): > 100 µM
TGI (DU-145 prostate): > 100 µM
TGI (786-0 renal): > 100 µM
TGI (MDA-MB-435): > 100 µM

Cn1c(=O)n2n(c1=O)C(S(=O)c1ccccc1)C2 (stereo not given)
TGI (K-562 leukemia): > 100 µM
TGI (HOP-92 NSCLC): > 100 µM
TGI (SK-MEL-5 melanoma): > 100 µM
TGI (MOLT-4 leukemia): > 100 µM
TGI (SNB-19 CNS): > 100 µM
TGI (OVCAR-4 ovarian): > 100 µM
TGI (DU-145 prostate): > 100 µM
TGI (786-0 renal): > 100 µM
TGI (MDA-MB-435): > 100 µM
